Measured values reported in the CheMixHub viscosity set.

Assay: xn = mol fraction of the nth substance listed

O=Cc1ccccc1 + O=[N+]([O-])c1ccccc1
303.15 K, 101 kPa
Details	viscosity [mPa·s]
x1 = 0.3043	1.495
x1 = 0.6049	1.405
x1 = 0.9018	1.295

O=Cc1ccccc1 + OCc1ccccc1
293.15 K, 100 kPa
Details	viscosity [mPa·s]
x2 = 0.1032	1.695
x2 = 0.2	1.882
x2 = 0.3007	2.114
x2 = 0.4023	2.322
x2 = 0.4989	2.633
x2 = 0.6013	3.114
x2 = 0.688	3.591
x2 = 0.8	4.366
x2 = 0.8984	5.395

[Br-].[Br-].[Br-].[Br-].[Sn+4] + Oc1ccccc1
313.15 K, 101 kPa
Details	viscosity [mPa·s]
x1 = 0.1	4.21
x1 = 0.2	3.817
x1 = 0.3	3.351
x1 = 0.4	3.034
x1 = 0.5	2.762
x1 = 0.6	2.56
x1 = 0.7	2.387
x1 = 0.8	2.262
x1 = 0.9	2.137

c1ccc(Nc2ccccc2)cc1 + Oc1ccccc1
viscosity [mPa·s], 101 kPa
Details	303.15 K	313.15 K	323.1 K
x1 = 0.21	–	–	3.825
x1 = 0.444	–	–	4.362
x1 = 0.683	–	–	5.01
x2 = 0.133	12.57	7.95	–
x2 = 0.2435	11.65	7.43	–
x2 = 0.3531	10.72	6.93	–
x2 = 0.4454	10.03	6.52	–
x2 = 0.5306	9.47	6.2	–
x2 = 0.6104	8.98	5.91	–
x2 = 0.6735	8.61	5.68	–
x2 = 0.7266	8.28	5.51	–
x2 = 0.7989	7.91	5.28	–
x2 = 0.8548	7.65	5.13	–
x2 = 0.908	7.42	4.98	–
x2 = 0.9541	7.255	4.845	–

O=C(O)C(Cl)Cl + [Cl-].[Cl-].[Cl-].[Cl-].[Sn+4]
viscosity [mPa·s], 101 kPa
Details	x2 = 0.1	x2 = 0.2027	x2 = 0.3211	x2 = 0.5002	x2 = 0.805
308.15 K	3.657	2.621	2.121	1.445	0.831
323.15 K	2.609	1.982	1.63	1.09	0.705

C=C(C)C(=O)OCCCCCCC + c1ccccc1
viscosity [mPa·s], 101 kPa
Details	x1 = 0.002	x1 = 0.004	x1 = 0.01	x1 = 0.02
303 K	0.5525	0.5621	0.5849	0.5828
313 K	0.4874	0.4915	0.5123	0.5115
323 K	0.4321	0.4362	0.4518	0.4535

CCCCCCCCN + c1ccccc1
303.15 K, 101 kPa
Details	viscosity [mPa·s]
x2 = 0.1044	1.099
x2 = 0.3007	0.9459
x2 = 0.498	0.7915
x2 = 0.597	0.7318
x2 = 0.6967	0.6798
x2 = 0.7998	0.6239
x2 = 0.899	0.5891

Cc1ccc(C)cc1 + c1ccccc1
Details	viscosity [mPa·s]
293.15 K, 101.33 kPa, x2 = 0.2202	0.631
293.15 K, 101.33 kPa, x2 = 0.42	0.623
293.15 K, 101.33 kPa, x2 = 0.7393	0.627
293.15 K, 101.33 kPa, x2 = 0.8207	0.628
298 K, 101.3 kPa, x2 = 0.2099	0.603
298 K, 101.3 kPa, x2 = 0.3766	0.596
298 K, 101.3 kPa, x2 = 0.5839	0.596
298 K, 101.3 kPa, x2 = 0.7205	0.596
298 K, 101.3 kPa, x2 = 0.8802	0.599
303 K, 101 kPa, x1 = 0.1002	0.5613
303 K, 101 kPa, x1 = 0.2018	0.5603
303 K, 101 kPa, x1 = 0.3012	0.5605
303 K, 101 kPa, x1 = 0.397	0.5611
303 K, 101 kPa, x1 = 0.4983	0.5617
303 K, 101 kPa, x1 = 0.5959	0.5628
303 K, 101 kPa, x1 = 0.7005	0.5641
303 K, 101 kPa, x1 = 0.8019	0.5666
303 K, 101 kPa, x1 = 0.8988	0.5684
303.15 K, 101.33 kPa, x2 = 0.2202	0.557
303.15 K, 101.33 kPa, x2 = 0.42	0.55
303.15 K, 101.33 kPa, x2 = 0.7393	0.55
303.15 K, 101.33 kPa, x2 = 0.8207	0.553
313 K, 101 kPa, x1 = 0.1002	0.4975
313 K, 101 kPa, x1 = 0.2018	0.4982
313 K, 101 kPa, x1 = 0.3012	0.4993
313 K, 101 kPa, x1 = 0.397	0.502
313 K, 101 kPa, x1 = 0.4983	0.5024
313 K, 101 kPa, x1 = 0.5959	0.5039
313 K, 101 kPa, x1 = 0.7005	0.5071
313 K, 101 kPa, x1 = 0.8019	0.509
313 K, 101 kPa, x1 = 0.8988	0.5122
313.15 K, 101.33 kPa, x2 = 0.2202	0.497
313.15 K, 101.33 kPa, x2 = 0.42	0.493
313.15 K, 101.33 kPa, x2 = 0.7393	0.49
313.15 K, 101.33 kPa, x2 = 0.8207	0.485
318 K, 101.3 kPa, x2 = 0.1977	0.4856
318 K, 101.3 kPa, x2 = 0.3756	0.4775
318 K, 101.3 kPa, x2 = 0.5821	0.4739
318 K, 101.3 kPa, x2 = 0.7212	0.472
318 K, 101.3 kPa, x2 = 0.8882	0.4718
323 K, 101 kPa, x1 = 0.1002	0.4435
323 K, 101 kPa, x1 = 0.2018	0.4443
323 K, 101 kPa, x1 = 0.3012	0.4462
323 K, 101 kPa, x1 = 0.397	0.4502
323 K, 101 kPa, x1 = 0.4983	0.4513
323 K, 101 kPa, x1 = 0.5959	0.4527
323 K, 101 kPa, x1 = 0.7005	0.4554
323 K, 101 kPa, x1 = 0.8019	0.4585
323 K, 101 kPa, x1 = 0.8988	0.4596
323.15 K, 101.33 kPa, x2 = 0.2202	0.45
323.15 K, 101.33 kPa, x2 = 0.42	0.447
323.15 K, 101.33 kPa, x2 = 0.7393	0.442
323.15 K, 101.33 kPa, x2 = 0.8207	0.435

O=Cc1ccccc1 + c1ccccc1
viscosity [mPa·s], 101 kPa
Details	x1 = 0.1	x1 = 0.2	x1 = 0.4	x1 = 0.5	x1 = 0.6
298.15 K	0.655	0.714	0.847	0.928	1.012
308.15 K	0.583	0.625	0.742	0.809	0.885
318.15 K	0.509	0.551	0.667	0.711	0.773
323.15 K	0.477	0.517	–	0.665	0.724
